Source: PMC5863483, “Low HLA binding of diabetes-associated CD8+ T-cell epitopes is increased by post translational modifications” (BMC Immunology, 2018)
*1 amine or outer side, *2 acyl side, *3 side chain or, on linkers, in order; H or OH if unused. Where a SMILES comes first, the peptide text is derived from it. Where no end group is shown, it is not given here. [ ]: non-standard residue; d: D form. γGlu = O=C(O)[C@H](CCC(=O)[*:2])N[*:1]; βAsp = O=C(O)[C@H](CC(=O)[*:2])N[*:1]; Cit = NC(=O)NCCC[C@H](N)C(=O)O

target: HLA-A*02:01 (Homo sapiens, UniProt P04439, D140Y/D185E/D98H/E176V/E277Q/G131W/G231S/I119V/I121R/I166T/I218V/L300P/L318F/N151K/N90K/P208A/P217A/Q86G/Q94H/R138H/R169H/T345S); assay: HLA-peptide competition binding assay, A*02:01; details: not given

Compound | IC50 [nM]
CSCC[C@H](NC(=O)[C@@H](N)Cc1c[nH]c2ccccc12)C(=O)N[C@@H](CCCNC(N)=O)C(=O)N[C@@H](CC(C)C)C(=O)N[C@@H](CC(C)C)C(=O)N1CCC[C@H]1C(=O)N[C@@H](CC(C)C)C(=O)N[C@@H](CC(C)C)C(=O)N[C@@H](C)C(=O)N[C@@H](CC(C)C)C(=O)O [WMULLPLLAL] (H-WM[Cit]LLPLLAL-OH) | 310
LVEALYLVC | 11800
LLQVHHSCPL [reference compound] | 3090

same assay, conditions: post-translationally modified insulin peptide; competition binding assay; a dash indicates IC50 >40,000 nM; read-out: A*02:01 binding (IC50 nM) Modified

IC50 [nM] | Compound
> 40000 | C[C@H](NC(=O)[C@H](CCC(=O)O)NC(=O)[C@H](CCCNC(N)=O)NC(=O)[C@H](CCCNC(N)=O)NC(=O)[C@@H](NC(=O)[C@H](CCCCN)NC(=O)[C@@H]1CCCN1C(=O)[C@@H](N)[C@@H](C)O)[C@@H](C)O)C(=O)N[C@@H](CCC(=O)O)C(=O)O (H-TPKT[Cit][Cit]EAE-OH; N-terminus and C-terminus assumed)
> 40000 | CC[C@H](C)[C@H](NC(=O)CNC(=O)[C@H](CCCNC(N)=O)NC(=O)[C@H](CCCCN)NC(=O)[C@H](CCC(N)=O)NC(=O)[C@@H](N)CC(C)C)C(=O)N[C@H](C(=O)N[C@@H](CCC(=O)O)C(=O)N[C@@H](CCC(N)=O)C(=O)N[C@@H](CS)C(=O)O)C(C)C (H-LQK[Cit]GIVEQC-OH; N-terminus and C-terminus assumed)
> 40000 | LVCGERGYFY

Second part, the compound before the results:

Compound | IC50 [nM]
CC[C@H](C)[C@H](NC(=O)CNC(=O)[C@H](CCCNC(N)=O)NC(=O)[C@H](CCCCN)NC(=O)[C@H](CCC(N)=O)NC(=O)[C@H](CC(C)C)NC(=O)[C@H](CO)NC(=O)CNC(=O)[C@H](CCC(=O)O)NC(=O)[C@@H](N)CC(C)C)C(=O)O (H-LEGSLQK[Cit]GI-OH; N-terminus and C-terminus assumed) | > 40000
CC(C)C[C@H](NC(=O)[C@H](Cc1c[nH]cn1)NC(=O)[C@H](CO)NC(=O)CNC(=O)[C@H](CS)NC(=O)[C@H](CC(C)C)NC(=O)[C@H](Cc1c[nH]cn1)NC(=O)CC[C@H](NC(=O)C[C@H](N)C(=O)O)C(=O)O)C(=O)O [OZHLCGSHL] ({βAsp-γGlu}-HLCGSHL-OH; N-terminus and C-terminus assumed) | > 40000
FVDEHLCGS | > 40000

same assay, conditions: post-translationally modified insulin-derived peptide; radiolabeled ligand competition, purified MHC, two-day incubation, three or more independent experiments; read-out: A*02:01 binding, Modified

IC50 [nM] | Compound
28 | CSCC[C@H](NC(=O)[C@H](Cc1c[nH]c2ccccc12)NC(=O)[C@H](CC(C)C)NC(=O)[C@H](C)N)C(=O)N[C@@H](CCCNC(N)=O)C(=O)N[C@@H](CC(C)C)C(=O)N[C@@H](CC(C)C)C(=O)N1CCC[C@H]1C(=O)N[C@@H](CC(C)C)C(=O)O (H-ALWM[Cit]LLPL-OH)
61 | CSCC[C@H](NC(=O)[C@H](Cc1c[nH]c2ccccc12)NC(=O)[C@@H](N)CC(C)C)C(=O)N[C@@H](CCCNC(N)=O)C(=O)N[C@@H](CC(C)C)C(=O)N[C@@H](CC(C)C)C(=O)N1CCC[C@H]1C(=O)N[C@@H](CC(C)C)C(=O)N[C@@H](CC(C)C)C(=O)N[C@@H](C)C(=O)O (H-LWM[Cit]LLPLLA-OH)

same assay, conditions: read-out: A*02:01 binding (IC50 nM) Modified

IC50 [nM] | Compound
34700 | C[C@H](NC(=O)[C@H](CCC(=O)O)NC(=O)[C@H](CCCNC(N)=O)NC(=O)[C@H](CCCNC(N)=O)NC(=O)[C@@H](NC(=O)[C@H](CCCCN)NC(=O)[C@@H]1CCCN1C(=O)[C@@H](NC(=O)[C@@H](N)Cc1ccc(O)cc1)[C@@H](C)O)[C@@H](C)O)C(=O)O (H-YTPKT[Cit][Cit]EA-OH)

same assay, conditions: read-out: A*02:01 binding (IC50 nM) WT

IC50 [nM] | Compound
257 | SHLVEALYL
1400 | YLVCGERGFF
228 | MRLLPLLAL [MRLLPLLAL]

same assay, conditions: read-out: IC50 nM, target assay A*02:01

IC50 [nM] | Compound
97 | CC[C@H](C)[C@H](NC(=O)[C@H](CC(N)=O)NC(=O)[C@H](C)NC(=O)[C@H](CC(C)C)NC(=O)[C@@H](N)CCCCN)C(=O)N[C@@H](CCC(N)=O)C(=O)N[C@@H](CS)C(=O)N[C@@H](CC(C)C)C(=O)N[C@@H](CS)C(=O)N[C@@H](CC(C)C)C(=O)O [reference compound] (H-KLANIQCLCL-OH)
444 | LLPPLLEHL [reference compound]
> 40000 | KCQEVLAWL [reference compound]

The remaining lines, values behind:

Compound | IC50 [nM]
SLFEGVDFYT [reference compound] | 51
KVLHELFGMDI [reference compound] | 11
VLNSVASLL [reference compound] | 1140

same assay, conditions: unmodified (WT) insulin peptide; competition binding assay; a dash indicates IC50 >40,000 nM; read-out: A*02:01 binding (IC50 nM) WT

IC50 [nM] | Compound
> 40000 | LEGSLQKRG
> 40000 | REAEDLQVG
